Assay results published in patent US20250243210A1, “CRBN E3 LIGASE LIGAND COMPOUND, PROTEIN DEGRADER DEVELOPED BASED THEREON AND THEIR APPLICATIONS” (GLUETACS THERAPEUTICS (SHANGHAI) CO., LTD., priority 2021, published 2025).
Like-named read-outs stand apart in the source and are kept apart here. Each block holds one compound with its values, some of them ahead of it.

Experiments:
[1] = molecular target: human Cereblon WT GST-tagged protein (Homo sapiens (Human), UniProt Q96SW2); experiment: CRBN binding, HTRF (CEREBLON BINDING kit)
human Cereblon WT GST-tagged protein, sequence (Q96SW2 whole entry): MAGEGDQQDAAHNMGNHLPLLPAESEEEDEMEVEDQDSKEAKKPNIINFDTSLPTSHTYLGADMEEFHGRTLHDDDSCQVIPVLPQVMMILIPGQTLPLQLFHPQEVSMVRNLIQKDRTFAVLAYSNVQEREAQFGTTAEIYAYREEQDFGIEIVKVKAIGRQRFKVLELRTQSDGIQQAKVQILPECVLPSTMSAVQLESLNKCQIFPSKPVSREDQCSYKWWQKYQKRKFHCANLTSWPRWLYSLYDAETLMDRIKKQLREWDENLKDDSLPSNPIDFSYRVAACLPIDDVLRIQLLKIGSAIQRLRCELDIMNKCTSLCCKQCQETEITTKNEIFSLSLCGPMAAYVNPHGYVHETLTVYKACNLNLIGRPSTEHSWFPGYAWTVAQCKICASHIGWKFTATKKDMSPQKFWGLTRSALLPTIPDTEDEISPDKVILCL
Description: Determination of CRBN-Binding Affinity of Compounds
The CEREBLON BINDING kits (specification: 10,000 tests; product number: Catalog #64BDCRBNPEH; CISBIO company) was used to determine the CRBN binding ability of the compounds to be tested through a HTRF method (homogeneous time-resolved fluorescence). The specific methods are as follows: • 1. […] Then, 2.5 μL of (human Cereblon WT GST-tagged protein) solution was added to each well. Finally, 5 μL of the uniformly mixed thalidomide-Red reagent and GST Eu antibody working solution were added to each of the above wells. […] The blank control wells were sequentially added with 2.5 μL of diluent #9 (1×) solution, 2.5 μL of ligand binding buffer, and 5 μL of uniformly mixed thalidomide-Red reagent and GST Eu antibody working solution. • 4. […] The corresponding CRBN binding inhibition rate was calculated using the following method: […]

LNcap = experiment: CCK-8 tumor cell proliferation, LNcap; format: cell-based, Human; details: 96 h, read-out: IC50 for inhibiting the proliferation of tumor cells, LNcap
Description: (§1) Determination of half inhibitory concentration (IC50) of the compounds against tumor cells:
(§2) The tumor cells used herein were cultured in a cell culture medium listed in table 6 at 37° C. in an incubator with 5% CO2. Prior to experimentation, all cells used were correctly identified by STR profiling, and tested negative for mycoplasma through routine screenings.
(§3) IC50 values of the compounds of the present disclosure (including the compounds in Table 4 and compounds of examples 1-72) were measured using the Meilun Cell Counting Kit-S kit from Dalian Meilun Biotech Co., Ltd. Assay details are as follows: tumor cells were seeded in a 96-well plate at a density listed in Table 7. After 24 h, 100 μL of the inoculated cells were treated with 0.5 μL of the compounds of the present disclosure (including the compounds in Table 4 and compounds of examples 1-72) at 10 different successively decreasing concentrations (starting at the highest concentration of 10 μM; 5-fold serial dilutions). After the cells were treated with the compounds of the present disclosure for a period of time (the treatment times listed in Table 7), the cell viability detection reagent was added to the culture medium for cell viability assessment according to the instructions provided with the CCK-8 kit. […] The growth inhibition of the compounds of the present disclosure on cells was plotted by Prism Graphpad software, and the IC50 values of the compounds of the present disclosure were calculated therefrom.

PC-3 = experiment: CCK-8 tumor cell proliferation, PC-3; format: cell-based, Human; details: PC-3, 96 h, read-out: IC50 for inhibiting the proliferation of tumor cells, PC-3
Description: as §1
(§4) The tumor cells used herein were cultured in a cell culture medium listed in table 6 at 37° C. in an incubator with 5% CO2.
(§5) After the cells were treated with the compounds of the present disclosure for a period of time (the treatment times listed in Table 7), the cell viability detection reagent was added to the culture medium for cell viability assessment according to the instructions provided with the CCK-8 kit. […] The growth inhibition of the compounds of the present disclosure on cells was plotted by Prism Graphpad software, and the IC50 values of the compounds of the present disclosure were calculated therefrom.

DU-145 = experiment: CCK-8 tumor cell proliferation, DU-145; format: cell-based, Human; details: DU-145, 96 h, read-out: IC50 for inhibiting the proliferation of tumor cells, DU-145
Description: as §1, §4, §5

WSU-DLCL2 = experiment: CCK-8 tumor cell proliferation, WSU-DLCL2; format: cell-based, Human; details: read-out: IC50 for inhibiting the proliferation of tumor cells, WSU-DLCL2
Description: as §1, §4, §5

MGC80-3 = experiment: CCK-8 tumor cell proliferation, MGC80-3; format: cell-based, Human; details: read-out: IC50 for inhibiting the proliferation of tumor cells, MGC80-3
Description: as §1, §2, §3

MM.1R = experiment: CCK-8 tumor cell proliferation, MM.1R; format: cell-based; details: 72 h, read-out: IC50 for inhibiting the proliferation of tumor cells, MM.1R
Description: as §1, §4, §5

Hep3B2.1-7 = experiment: CCK-8 tumor cell proliferation, Hep3B2.1-7; format: cell-based, Human; details: Hep3B2.1-7, 96 h, read-out: IC50 for inhibiting the proliferation of tumor cells, Hep3B2.1-7
Description: as §1, §2, §3

[2] = Homo sapiens, WSUDLCL2, WSU-DLCL2, 96 h
[3] = Homo sapiens, MGC-803, MGC80-3, 96 h

Compound: O=C1CCC(N2C(=O)c3ccc(N4CC5CC(C4)N5)cc3C2=O)C(=O)N1 (stereo not drawn) [GT-03075, 5-(3,6-diazabicyclo[3.1.1]heptan-3-yl)-2-(2,6-dioxopiperidin-3-yl)isoindoline-1,3-dione]
IC50 [1]: 5090 nM

IC50 [1]: 650 nM
Compound: O=C1CCC(N2C(=O)c3ccc(N4CC5CCC4CN5)cc3C2=O)C(=O)N1 (stereo not drawn) [GT-03076, 5-(2,5-diazabicyclo[2.2.2]octan-2-yl)-2-(2,6-dioxopiperidin-3-yl)isoindoline-1,3-dione]

Compound: O=C1CCC(N2C(=O)c3ccc(N4CC5CCC(C4)N5)cc3C2=O)C(=O)N1 (stereo not drawn) [GT-03077, 5-(3,8-diazabicyclo[3.2.1]octan-3-yl)-2-(2,6-dioxopiperidin-3-yl)isoindoline-1,3-dione]
IC50 [1]: 5200 nM

Compound: O=C1CCC(N2C(=O)c3ccc(N4C5CNCC4C5)cc3C2=O)C(=O)N1 (stereo not drawn) [GT-03100, 5-(3,6-diazabicyclo[3.1.1]heptan-6-yl)-2-(2,6-dioxopiperidin-3-yl)isoindoline-1,3-dione]
IC50 [1]: 9800 nM

Compound: O=C1CCC(N2C(=O)c3cc(F)c(N4C5CNCC4C5)cc3C2=O)C(=O)N1 (stereo not drawn) [GT-03106, 5-(3,6-diazabicyclo[3.1.1]heptan-6-yl)-2-(2,6-dioxopiperidin-3-yl)-6-fluoroisoindoline-1,3-dione]
IC50 [1]: 4040 nM

Compound: [2H]C1([2H])NC([2H])([2H])C([2H])([2H])N(c2cc3c(cc2F)C(=O)N(C2CCC(=O)NC2=O)C3=O)C1([2H])[2H] (stereo not drawn) [GT-03108, 2-(2,6-dioxopiperidin-3-yl)-5-fluoro-6-(piperazin-1-yl-2,2,3,3,5,5,6,6-d8)isoindoline-1,3-dione]
IC50 [1]: 8750 nM

Compound: O=C1CCC(N2C(=O)c3cc(F)c(N4CC5CC(C4)N5)cc3C2=O)C(=O)N1 (stereo not drawn) [GT-03109, 5-(3,6-diazabicyclo[3.1.1]heptan-3-yl)-2-(2,6-dioxopiperidin-3-yl)-6-fluoroisoindoline-1,3-dione]
IC50 [1]: 3550 nM

Compound: O=C1CCC(N2C(=O)c3ccc(N4C5CCC4CNC5)cc3C2=O)C(=O)N1 (stereo not drawn) [GT-03210, 5-(3,8-diazabicyclo[3.2.1]octan-8-yl)-2-(2,6-dioxopiperidin-3-yl)isoindoline-1,3-dione]
IC50 [1]: 2690 nM

Compound: O=C1CCC(N2C(=O)c3cc(F)c(N4C5CCC4CNC5)cc3C2=O)C(=O)N1 (stereo not drawn) [GT-03211, 5-(3,8-diazabicyclo[3.2.1]octan-8-yl)-2-(2,6-dioxopiperidin-3-yl)-6-fluoroisoindoline-1,3-dione]
IC50 [1]: 9800 nM

Compound: N#Cc1ccc(OC2CCC(NC(=O)c3ccc(N4CCC(CN5CC6CC(C5)N6c5ccc6c(c5)C(=O)N(C5CCC(=O)NC5=O)C6=O)CC4)nn3)CC2)cc1Cl (stereo not drawn) [GT-03339, N-((1r,4r)-4-(3-chloro-4-cyanophenoxy)cyclohexyl)-6-(4-((6-(2-(2,6-dioxopiperidin-3-yl)-1,3-dioxoisoindolin-5-yl)-3,6-diazabicyclo[3.1.1]heptan-3-yl)methyl)piperidin-1-yl)pyridazine-3-carboxamide]
IC50 (LNcap): 100 to 500 nM
IC50 (PC-3): 100 to 500 nM
IC50 (DU-145): 100 to 500 nM
IC50 (WSU-DLCL2; WSU-DLCL2, 96 h): 100 to 500 nM
IC50 (MGC80-3; MGC80-3, 96 h): 50 to 100 nM

Compound: CC1(C)[C@H](NC(=O)c2ccc(N3CCC(CN4CC5CC(C4)N5c4ccc5c(c4)C(=O)N(C4CCC(=O)NC4=O)C5=O)CC3)nn2)C(C)(C)[C@H]1Oc1ccc(C#N)c(Cl)c1 (stereo partly drawn) [GT-03400, N-((1r,3r)-3-(3-chloro-4-cyanophenoxy)-2,2,4,4-tetramethylcyclobutyl)-6-(4-((6-(2-(2,6-dioxopiperidin-3-yl)-1,3-dioxoisoindolin-5-yl)-3,6-diazabicyclo[3.1.1]heptan-3-yl)methyl)piperidin-1-yl)pyridazine-3-carboxamide]
IC50 (LNcap; Homo sapiens): 100 to 500 nM
IC50 (PC-3; Homo sapiens): 100 to 500 nM
IC50 (DU-145; Homo sapiens): 100 to 500 nM
IC50 (WSU-DLCL2; [2]): 500 to 1000 nM
IC50 (MGC80-3; [3]): 100 to 500 nM

Compound: CC1(C)[C@H](NC(=O)c2ccc(N3CCC(CN4CC5CCC(C4)N5c4ccc5c(c4)C(=O)N(C4CCC(=O)NC4=O)C5=O)CC3)nc2)C(C)(C)[C@H]1Oc1ccc(C#N)c(Cl)c1 (stereo partly drawn) [GT-03425, N-((1r,3r)-3-(3-chloro-4-cyanophenoxy)-2,2,4,4-tetramethylcyclobutyl)-6-(4-((8-(2-(2,6-dioxopiperidin-3-yl)-1,3-dioxoisoindolin-5-yl)-3,8-diazabicyclo[3.2.1]octan-3-yl)methyl)piperidin-1-yl)nicotinamide]
IC50 (LNcap; Homo sapiens): 50 to 100 nM
IC50 (DU-145; Homo sapiens): 500 to 1000 nM
IC50 (MM.1R): 100 to 500 nM
IC50 (WSU-DLCL2; [2]): 50 to 100 nM
IC50 (MGC80-3; [3]): ≤ 50 nM
IC50 (Hep3B2.1-7; Homo sapiens): ≤ 50 nM

Compound: CC1(C)[C@H](NC(=O)c2ccc(N3CCC(CN4C5CCC4CN(c4ccc6c(c4)C(=O)N(C4CCC(=O)NC4=O)C6=O)C5)CC3)nc2)C(C)(C)[C@H]1Oc1ccc(C#N)c(Cl)c1 (stereo partly drawn) [GT-03426, N-((1r,3r)-3-(3-chloro-4-cyanophenoxy)-2,2,4,4-tetramethylcyclobutyl)-6-(4-((3-(2-(2,6-dioxopiperidin-3-yl)-1,3-dioxoisoindolin-5-yl)-3,8-diazabicyclo[3.2.1]octan-8-yl)methyl)piperidin-1-yl)nicotinamide]
IC50 (LNcap; Homo sapiens): 50 to 100 nM
IC50 (MM.1R): 100 to 500 nM
IC50 (MGC80-3; [3]): 50 to 100 nM
IC50 (Hep3B2.1-7; Homo sapiens): ≤ 50 nM

Compound: CC1(C)[C@H](NC(=O)c2ccc(N3CCC(CN4C5CC4CN(c4ccc6c(c4)C(=O)N(C4CCC(=O)NC4=O)C6=O)C5)CC3)nc2)C(C)(C)[C@H]1Oc1ccc(C#N)c(Cl)c1 (stereo partly drawn) [GT-03471, N-((1r,3r)-3-(3-chloro-4-cyanophenoxy)-2,2,4,4-tetramethylcyclobutyl)-6-(4-((3-(2-(2,6-dioxopiperidin-3-yl)-1,3-dioxoisoindolin-5-yl)-3,6-diazabicyclo[3.1.1]heptan-6-yl)methyl)piperidin-1-yl)nicotinamide]
IC50 (LNcap; Homo sapiens): 500 to 1000 nM
IC50 (WSU-DLCL2; [2]): 1000 to 5000 nM
IC50 (MGC80-3; [3]): 100 to 500 nM
IC50 (Hep3B2.1-7; Homo sapiens): 100 to 500 nM

Compound: CC1(C)[C@H](NC(=O)c2ccc(N3CCC(CN4C5CCC4CN(c4cc6c(cc4F)C(=O)N(C4CCC(=O)NC4=O)C6=O)C5)CC3)nc2)C(C)(C)[C@H]1Oc1ccc(C#N)c(Cl)c1 (stereo partly drawn) [GT-03482, N-((1r,3r)-3-(3-chloro-4-cyanophenoxy)-2,2,4,4-tetramethylcyclobutyl)-6-(4-((3-(2-(2,6-dioxopiperidin-3-yl)-6-fluoro-1,3-dioxoisoindolin-5-yl)-3,8-diazabicyclo[3.2.1]octan-8-yl)methyl)piperidin-1-yl)nicotinamide]
IC50 (LNcap; Homo sapiens): 50 to 100 nM
IC50 (DU-145; Homo sapiens): 100 to 500 nM
IC50 (MM.1R): 100 to 500 nM
IC50 (WSU-DLCL2; [2]): 100 to 500 nM
IC50 (MGC80-3; [3]): 50 to 100 nM
IC50 (Hep3B2.1-7; Homo sapiens): 100 to 500 nM

Compound: N#Cc1ccc(OC2CCC(NC(=O)c3ccc(N4CCC(CN5C6CCC5CN(c5ccc7c(c5)C(=O)N(C5CCC(=O)NC5=O)C7=O)C6)CC4)nn3)CC2)cc1Cl (stereo not drawn) [GT-03489, N-((1r,4r)-4-(3-chloro-4-cyanophenoxy)cyclohexyl)-6-(4-((3-(2-(2,6-dioxopiperidin-3-yl)-1,3-dioxoisoindolin-5-yl)-3,8-diazabicyclo[3.2.1]octan-8-yl)methyl)piperidin-1-yl)pyridazine-3-carboxamide]
IC50 (LNcap): 100 to 500 nM
IC50 (DU-145): 1000 to 5000 nM
IC50 (MM.1R): 500 to 1000 nM
IC50 (WSU-DLCL2; WSU-DLCL2, 96 h): 100 to 500 nM
IC50 (MGC80-3; MGC80-3, 96 h): 100 to 500 nM
IC50 (Hep3B2.1-7): 100 to 500 nM
